Measured values: US20240246960A1 (adMare Therapeutics Society, priority 2021, published 2024)
Where two headings read alike, the source gives them in different places.

Key:
[1] = test system: HCT116 spheroids; assay: Spheroid + radiation colony forming cell survival assay (SF), HCT116; assay type: cell-based; conditions: Homo sapiens, HCT-116, 8 Gy
Procedure: (§1) Multicellular tumour spheroids determination of compound inhibition of pDNA-PK induction following radiation. Tumour spheroids were grown to approximately 0.5 mm in diameter and irradiated with 20 Gy in combination with inhibitor test compounds to determine their potency. Inhibitor concentration for 50% reduction in pDNA-PK induction (IC50) was determined via immunohistochemical staining in spheroid cryosections taken 2 hours following radiation. For cell survival endpoint 8 Gy radiation was used and 3 hours following radiation spheroids were dissociated, counted and plated for colony forming endpoint.
Spheroid+radiation colony forming cell survival assay (SF). Radiation 8 Gy. Drug: serial dilution 5 μM down to 10 nM (12 wells×2 repeat). Spheroids: 5-10 spheroids per well ([…]). HCT116. 5% O2 and 5% CO2. 96 well pate format for assay. Protocol: pre incubate 1 hour with drug, irradiate 8 Gy, post incubate 3 hrs with drug, dissociate spheroids and count cells and plate for colony forming assay. Endpoint: wait 4-7 days and count colonies. Analysis: determine EC50 concentration that increase cell kill by 50% over radiation alone.
(§2) Multicellular tumour spheroids were used to determine potency of test compounds in a 3D tissue environment using inhibition of pDNA-PK induction following radiation or cell survival as the endpoint. For the pDNA-PK endpoint HCT116 or FaDU tumour spheroids were grown to approximately 0.5 mm in diameter and irradiated with 20 Gy in combination with inhibitor test compounds to determine their potency. Experiments were carried out in 96 well plates containing 0.7 mls of MEM media containing 10% FBS and 10 mM glucose under 20% O2 & 5% CO2 at 37° C. Following dilution of compounds 1:1000 from DMSO stocks, compounds were serially diluted from 10 μM down to 3.5 nM and 5-10 spheroids added. 96 well plates were constantly stirred to avoid spheroids settling during the course of the experiment. The inhibitor concentration for 50% reduction in pDNA-PK induction (EC50) was determined via immunohistochemical staining in spheroid cryosections taken 2 hours following radiation using anti-pDNA-PK (ser 2056) and fixed immediately in formalin following sectioning. For cell survival endpoint 8 Gy radiation was used and, 3 hours following radiation, spheroids were dissociated, counted and plated for colony forming endpoint. Data presented in the table compound potency as EC50 [μM].

[2] = target: T1, pDNA-PK ser2056 induction in FaDU spheroids (Homo sapiens, UniProt P78527); assay: Multicellular tumour spheroid + radiation, pDNA-PK inhibition, FaDU; assay type: cell-based; conditions: 20 Gy
T1 construct: host or cells: FaDu
Procedure: as §1
Spheroid+radiation pDNA-PK. Radiation: 20 Gy. Drug: serial dilution 5 or 10 μM down to 3.5 nM (11 wells). Spheroids: 3-6 spheroids per well (300-500 μm diameter). 20% O2 and 5% CO2. 96 well plate format. Endpoint: fluorescent immunostain pDNA-PK ser2056 and image on microscope. Analysis: determine EC50 concentrations that decreases pDNA-PK induction […] after irradiation.
as §2

[3] = target: T2, pDNA-PK ser2056 induction in HCT116 spheroids (Homo sapiens, UniProt P78527); assay: Multicellular tumour spheroid + radiation, pDNA-PK inhibition, HCT116; assay type: cell-based; conditions: 20 Gy
T2 construct: endogenous in cells; host or cells: HCT116 multicellular tumour spheroids
Method in brief: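 EC50 (μM) is concentration halving radiation-induced pDNA-PK ser2056, scored by fluorescent immunostaining of cryosections 2 h after 20 Gy. HCT116 tumour spheroids (~0.5 mm, stirred, 20% O2/5% CO2, 37 °C) exposed to serial dilutions from 10 or 5 μM to 3.5 nM starting 1 h before irradiation.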

[4] = target: T3, DNA-PK (Homo sapiens, UniProt P78527); assay: DNA-PK Assay for Biochemical Enzymatic Inhibition (ADP Glo Kinase assay); conditions: Table 1
T3 construct: purchased Invitrogen PR9107A
Method in brief: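 Human DNA-PK (25 ng) preincubated 15 min with compounds (ten three-fold dilutions) in HEPES pH 7.5, MgCl2, KCl, calf thymus DNA buffer, then substrate 434.4 μM and ATP 64.4 μM (final) for 60 min at room temperature. ADP-Glo luminescence; percent inhibition fitted by four-parameter regression for IC50.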

[5] = target: T4, DNA-PK phosphorylation at Serine 2056 (Homo sapiens, UniProt P78527); assay: Cellular Assay for Inhibition of DNA-PK Phosphorylation at Serine 2056 (FaDu cells, neocarzinostatin, sandwich ELISA); assay type: cell-based; conditions: Table 1
T4 construct: host or cells: FaDu
Method in brief: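 Readout was pSer2056 and total DNA-PK, measured by sandwich ELISA on protein-normalized lysates. Prior to lysis, compound was applied to FaDu cells for 1 h (0.3% DMSO), followed by 2 h of 1 μg/mL neocarzinostatin. IC50 values were fitted from log concentration versus % inhibition normalized to DMSO and NCS controls.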

[6] = Microsomal stability assay, mouse liver microsomes; conditions: for microsomal CLint at 0.1 uM: male, CD-1, mouse, liver microsomes, pH 7.4, Microsomal Stability Mouse Clint, 0.1 mg/mL microsomes, 0.1 uM compound
Procedure: Mouse liver microsomes were obtained from a pool of 250 or more male CD-1 mice. […] Final microsomal concentration was 0.1 mg/mL and test compound concentration was 0.1 uM with a maximum of 0.01% DMSO. The test compound was pre-incubated with pooled liver microsomes in phosphate buffer (pH 7.4) for 5 min in a 37° C. shaking water bath. The reaction was initiated by adding NADPH-generating system and incubated for 0, 15, 30, 45, and 60 min. The reaction was stopped by transferring the incubation mixture to acetonitrile/methanol. Samples were then mixed and centrifuged. Supernatants were used for HPLC-MS/MS analysis. The HPLC system consisted of a binary LC pump with autosampler, a C-18 column, and a gradient. Peak areas corresponding to the test compound were recorded. The compound remaining was calculated by comparing the peak area at each time point to time zero. The half-life was calculated from the slope of the initial linear range of the logarithmic curve of compound remaining (%) vs. time, assuming first order kinetics. In addition, the intrinsic clearance (Clint) was calculated from the half-life.

[7] = Example 8, spheroid, read-out: Cell line: FaDU Immunohistochemical endpoint pDNA-PK inhibition EC50
[8] = Example 9 Study 2, 20% O2, read-out: Spheroid Cell line: FaDU Immunohistochemical endpoint pDNA-PK inhibition EC50
[9] = Example 7, spheroid, cell line HCT115 [sic], 20% O2, read-out: EC50 (pDNA-PK inhibition, immunohistochemical endpoint)
[10] = Example 8, spheroid, read-out: Cell line: HCT116 Immunohistochemical endpoint pDNA-PK inhibition EC50
[11] = Example 9 Study 2, 20% O2, read-out: Spheroid Cell line: HCT116 Immunohistochemical endpoint pDNA-PK inhibition EC50

Compound	EC50 ([1]; Example 8, spheroid, read-out: Cell line: HCT116 Colony forming endpoint Surviving Fraction EC50) [µM]	EC50 ([1]; Example 9 Study 2, read-out: Spheroid Cell line: HCT116 Colony forming endpoint Surviving Fraction EC50) [µM]	EC50 [2, 7] [µM]	EC50 [2, 8] [µM]	EC50 [3, 9] [µM]	EC50 [3, 10] [µM]	EC50 [3, 11] [µM]	IC50 [4] [µM]	IC50 [5] [µM]	Microsomal Stability (mouse) % rem. 60 min [6]	microsomal CLint at 0.1 uM [6] [µL/min/mg]
Brc1cnc2cc(N3CCOCC3)nc(O[C@H]3CC[C@@H](n4ccnc4)CC3)c2c1 [Compound 10, 4-(5-(((1s,4s)-4-(1H-imidazol-1-yl)cyclohexyl)oxy)-3-bromo-1,6-naphthyridin-7-yl)morpholine]	0.5 to 1	0.5 to 1	0.5 to 1	0.5 to 1	1 to 10	1 to 10	1 to 10				
FC(F)(F)c1cn([C@H]2CC[C@@H](Oc3nc(N4CCOCC4)cc4ncccc34)CC2)cn1 [Compound 17k, 4-(5-(((1s,4s)-4-(4-(trifluoromethyl)-1H-imidazol-1-yl)cyclohexyl)oxy)-1,6-naphthyridin-7-yl)morpholine]			0.5 to 1	0.5 to 1	1 to 10	1 to 10	1 to 10	< 0.0005	< 0.1	E (% remaining = 0-25%)	> 116
c1cnc2cc(N3CCOCC3)nc(O[C@H]3CC[C@@H](Nc4cnccn4)CC3)c2c1 [Compound 23, N-((1s,4s)-4-((7-Morpholino-1,6-naphthyridin-5-yl)oxy)cyclohexyl)pyrazin-2-amine]			0.01 to 0.5	0.01 to 0.5	0.01 to 0.5	0.01 to 0.5	0.01 to 0.5	< 0.0005	0.1 to 1	E (% remaining = 0-25%)	> 116
c1ccc(N[C@H]2CC[C@@H](Oc3nc(N4CCOCC4)cc4ncccc34)CC2)nc1 [Compound 25, N-((1s,4s)-4-((7-morpholino-1,6-naphthyridin-5-yl)oxy)cyclohexyl)pyridin-2-amine]			1 to 10	1 to 10	1 to 10	1 to 10	1 to 10	0.0005 to 0.001	0.1 to 1	F (% remaining = 25-50%)	> 116
c1cnc2cc(N3CCOCC3)nc(O[C@H]3CC[C@@H](Nc4ccncc4)CC3)c2c1 [Compound 27, N-((1s,4s)-4-((7-morpholino-1,6-naphthyridin-5-yl)oxy)cyclohexyl)pyridin-4-amine]			0.01 to 0.5	0.01 to 0.5	1 to 10	1 to 10	1 to 10	0.0005 to 0.001	0.1 to 1	E (% remaining = 0-25%)	> 116
